Values quoted from earlier work as cited in patent publication US5882682A (Merck & Co., Inc., priority 1997, dated 1999).
Converted amounts (≈) assume the structure as drawn.

What was measured:
[1] = humans

Structure (SMILES)	aqueous solubility (in words)	aqueous solubility (water) [µg/mL]	reduction of serum cholesterol levels [1]
CC(=O)Nc1ccc(O)cc1 [acetominophren, acetaminophen]	moderately soluble	–	–
COc1ccc2c(c1)c(CC(=O)O)c(C)n2C(=O)c1ccc(Cl)cc1 [indomethacin]	poorly aqueous soluble	–	–
CC[C@H](C)C(=O)O[C@H]1C[C@@H](C)C=C2C=C[C@H](C)[C@H](CC[C@@H]3C[C@@H](O)CC(=O)O3)[C@H]21 [lovastatin]	–	0.44 (≈ 1.09 µM)	highly effective
CCC(C)(C)C(=O)O[C@H]1C[C@@H](C)C=C2C=C[C@H](C)[C@H](CC[C@@H]3C[C@@H](O)CC(=O)O3)[C@H]21 [simvastatin]	–	–	highly effective
